Measurements taken from patent US6475719B1, “Determination of factors affecting gene regulation and/or gene replication” (priority 1989, dated 2002).

Experiments:
[1] = test system: B. subtilis 1A40 cells; experiment: Light emission, click beetle luciferase (pCSS962), IPTG induced; type: cell-based, Bacillus subtilis; settings: incubation 2 hours at 30° C.; FIG. 11b
Experimental: Using this construction, the production of luciferase can be turned on in B. subtilis by simple addition of IPTG, which binds to the lac repressor coded by the helper plasmid pBL1 present in the same cell. After IPTG binds to the repressor, the repressor cannot bind to the DNA region between phage T5 promoter and the luciferase gene thus allowing the expression of luciferase. Cells containing both plasmids were cultured overnight in 2×TY containing erythromycin (10 μg/ml, to keep pBL1 in the cell) and kanamycin (10 μg/ml, to keep pCSS952 in the cell). A suitable dilution was made and different amounts of antibiotic were added to the cells. After an incubation period of 2 hours at 30° C., the tubes were measured for light emission after addition of 1 mM D-luciferin substrate in 0.1 M Na-citrate. As shown in FIG. 11b a low amount of 0.1 ug/ml ampicillin and even lower amounts of oxytetracyclin and streptomycin can be detected.

[2] = test system: metallothioneins; settings: cadmium added to growth medium to 4×10^−6 molar; eucaryotic cells; cited from earlier work
[3] = test system: E. coli pCSS112/K-12 HI trp(c1857); experiment: Light production, bacterial luciferase under PL promoter (pCSS112); type: cell-based, Escherichia coli; settings: concentration in the measuring cuvette; 20 min at 30° C., 42° C. for 10 minutes
Experimental: A comparison is made between plasmids where the expression of bacterial luciferase genes are controlled by either lac (slow) or PL promoter (fast) promoters. E. coli clone pCSS112/K-12 HI trp(c1857) was grown overnight in 2×TY medium containing ampicillin 100 μg/ml. After this a suitable dilution was made in HBSS-buffer or in milk and 500 μl of this was added to 3 ml luminometer tubes. The tubes were equilibrated to 30° C. and different amounts of various toxic substances were added to tubes. Tubes were kept at 30° C. for 20 min, after which the temperature was shifted to 42° C. for 10 minutes. Thereafter the tubes were removed to luminometer chamber which had been equilibrated to 30° C. for automated measurement. As a comparison, an E. coli JM103 clone containing plasmid pCSS108 was used as a control. The control cells were treated similarly but without the heat-shock step. Messanger RNA and protein synthesis were induced in the control cells by adding IPTG to 1 mM. […] In case of chloramphenicol, the kinetics of light production have been shown in FIG. 11a when plasmid pCSS112 in E. coli K-12 HI trp(c1857) strain is used.
The following examples show detection of substances affecting other biosynthetic routes and metabolism of cells. […]
The following figures show the effect of each tested substance as measured by light production. […]

[4] = test system: E. coli pCSS123/JM103 cells; experiment: Change in plasmid copy number: total DNA from heat-treated cells, agarose gel; type: cell-based, Escherichia coli; settings: 42° C. for one hour; tested at 0, 1, 10 and 100 μg/ml; FIG. 8
Experimental: The plasmid pCSS123 described in the instant invention is a runaway-replication plasmid, in which a change in copy number can be obtained by shifting the temperature (FIG. 8). The effect of nalidixic acid, an agent known to inhibit DNA replication of cell DNA and especially of plasmid pCSS123 DNA, is shown in FIG. 8.
E. coli pCSS123/JM103 cells were cultivated in 20 ml of 2×TY at 30° C. in four Erlenmeyer bottles until the absorbance measured at 600 nm was 0.3. Nalidixic acid, a known inhibitor of DNA replication, was added to a final concentration of 0, 1, 10 and 100 μg/ml. Parallel samples of 1.5 ml from each bottle were immediately withdrawn to 15 ml tubes and kept at 30° C. for 20 min. The tubes were transferred to 42° C. for one hour and the bottles were left at 30° C. After one hour, both the tubes and the bottles were kept for an additional hour at 30° C. in a shaker. Total-DNA was extracted from 1.5 ml of culture.
Cells were centrifuged and the pellets were suspended in 500 μl 50 mM TRIS-HC1, pH 8.0, 50 mM EDTA. Cells were kept in an ice bath for 30 min and 50 μl of lysozyme (10 mg/ml) was added and kept in an ice bath for 45 min. One hundred μl of STEP solution (0.5% SDS, 50 mM TRIS-HC1, pH 7.5, 0.4 M EDTA) was added and kept at 50° C. for 60 min. After this, 600 μl of phenol was added and the tubes were gently mixed for 5 min and centrifuged 10 min at 12000×g. […]

[5] = test system: E. coli pCSS123/JM103 cells; experiment: Light production by cells with runaway-replication plasmid pCSS123; type: cell-based, Escherichia coli; settings: 20 min at 30° C., 42° C. one hour, IPTG 1 mM; FIG. 9a
Experimental: E. coli pCSS123/JM103 cells grown overnight were diluted 1:1000. Diluted cells in 2×TY were taken (0.5 ml) and various amounts of antibiotics or other toxic substances were added. These solutions were incubated 20 min at 30° C. After this the samples were transferred to 42° C. for one hour. Each tube was thereafter incubated at 30° C. in a waterbath and IPTG was added to 1 mM and n-decanal to 0.01%. The tubes were transferred to an automated light-gathering device, i.e., luminometer 1251 (LKB-Wallac, Turku, Finland) whose measuring chamber had been equilibrated to 30° C. Measurement of light emission by the cells was done with the auto-mode program so that each tube was automatically measured every two minutes. Data were collected in the memory of the computer for later analyses. […] For clarity reasons only two concentrations of chloramphenicol were compared to the untreated control.

[6] = test system: E. coli pCSS123/BW322; settings: heat induced at 42° C. for 25 minutes; FIG. 9d
Experimental: Freeze-dried E. coli pCSS123/BW322 were reconstituted with 1.0 ml of 2×TY and 45 μl of this was diluted 1:10 with 2×TY. Five μl of trimethoprim dilutions were added and kept at room temperature for 25 minutes. Cells were heat induced at 42° C. for 25 minutes and equilibrated to 30° C. in a water bath for 10 minutes. n-decanal was added to 0.001% and light production was measured using a LKB-Wallac 1250 manual luminometer. Same concentrations of trimethoprim together with reconstituted, freeze-dried cells which were not heat-treated acted as controls.

## CC1(C)S[C@@H]2[C@H](NC(=O)[C@H](N)c3ccccc3)C(=O)N2[C@H]1C(=O)O [ampicillin]
[1]
  amount that can be detected by light emission: 0.1 µg/mL

## [Cd] [cadmium]
[2]
  increase in the production of metallothioneins: over fifty

## O=C(N[C@H](CO)[C@H](O)c1ccc([N+](=O)[O-])cc1)C(Cl)Cl [chloramphenicol]
[3]
  lowest concentration giving differences in measured activity (light production) from the start of measurement: 0.1 µg/mL

## CCn1cc(C(=O)O)c(=O)c2ccc(C)nc21 [nalidixic acid]
[4]
  amount of nalidixic acid in whose presence DNA content was unaffected (no heat-induced increase of plasmid DNA): ≥ 1 µg
[5]
  amount that can be detected very quickly by light emission: 2 µg

## COc1cc(Cc2cnc(N)nc2N)cc(OC)c1OC [trimethoprim]
[6]
  sensitivity of detection by light production: sensitivity of the assay is very high
